Measured values from patent publication US9365851B2, “Spalt-like transcription factor 4 (SALL4) and uses thereof” (National University of Singapore, priority 2011, dated 2016).

Experiments:
[1] = tested on: H661 lung carcinoma cells; assay: MTS assay in lung carcinoma cells after knock-down; type: cell-based
Description: FIGS. 16A-16B: Loss of SALL4 in lung cancer cells that express high level of SALL4 decreases cell viability. (16A) qPCR (bar chart) and western blot were done to confirm the dwonregulation of SALL4 RNA (qPCR) and protein (western blot) expression levels upon SALL4 gene knockdown by shRNA (E5) compared to the control (SC).

SNU-398 cells = assay: Caspase 3/7 assay in SNU-398 cells; type: cell-based, human; conditions: SNU-398 after knockdown
Description: FIGS. 25A-25G: Functional roles of SALL4 in HCC. (25A) qPCR analysis of relative SALL4A and SALL4B expression on SNU-398 cells four days post-transduction. Error bars indicate standard error of three replicates. (25B) Western blot analysis of SALL4 expression on SNU-398 cells four days post-transduction. (25C) MTS analysis of cell viability upon gene knockdown by scrambled control shRNA (Scr) or E5 shRNA targeting SALL4 (E5) on SNU-398 (left) or SNU-387 (right) cells. Error bars indicate standard error of three replicates. (25D) Cell counting assay using trypan blus stain. […] (25F) Effects of SALL4 gene knockdown on tumorigenecity of HuH-7 cells. Representative images of mice transplanted with HuH-7 cells infected with virus expressing scrambled shRNA or E5 shRNA (top).
To further characterize the effects of loss of SALL4 in HCC cells, more functional assays in SNU-398 cells, which express high SALL4, were carried out. […] Furthermore, increased apoptosis in SALL4-knockdown HCC cells was observed by assessing caspase activities. Increased caspase 3/7 activities was observed upon loss of SALL4 in SNU-398 HCC cells (FIG. 30D), as well as increased cleaved caspase 3 (FIG. 30E).

primary human AML cells = assay: Xenotransplantation of shRNA-transduced primary human AML cells into NSG mice; type: in vivo
Description: The phenotype of wt peptide treatment was then compared with that of downregulation of SALL4 in primary AML cells. SALL4-specific shRNA (7210 and 7412, FIG. 6A) validated by previous studies were used for these experiments. FACS analysis with Annexin V/PI staining confirmed that there was a 2-fold increase in cell apoptosis and cell death in vitro in primary AML cells when SALL4 expression was reduced (FIG. 6B). In addition, there was an increased survival of leukemic recipient mice in vivo upon knocking down of SALL4 expression in these primary AML samples (FIG. 6C). 1.5×10^6 SALL4 shRNA or control retrovirus-treated primary human AML cells were transplanted into sublethally irradiated (1.0 Gy) NOD/SCID/IL2rγ-null mice by tail vein injection. Fatal AML with onset ranging from one to three months developed in all control recipient (7 out of 7) and some SALL4 shRNA recipient (2 out of 6) mice after transplantation. The transplanted leukemia disease was characterized by immature blasts with human CD45 expression in peripheral blood, bone marrow, and tissues such as liver and spleen (FIGS. 6C-6F). […] While the median survival of control recipient mice (N=7) was 33 days, the median survival of SALL4 shRNA recipient mice (N=6) was 109 days. Both the Log rank (also called Mantel-Cox, P=0.03 (FIG. 4H) and Gehan-Breslow-Wilcoxon (P=0.01)) tests were used for survival analysis and were statistically significant.
NSG (NOD.Cg-Prkdcscid Il2rgtm 1Wjl/SzJ, The Jackson Laboratory, ME, USA) mice were bred and maintained in the Children's Hospital Boston animal facility. All animal work has been approved by and done according to the guidelines of the IACUC under protocol 10-10-1832. Human primary AML cells exposed to various peptides or carrier only (1.0×10^6 cells per mouse) or transduced with SALL4-shRNA or control lentivirus (1.5×10^6 cell per mouse) were transplanted into 10- to 12-week old mice received 135 cGy sublethal irradiation 2-4 h before the injection via the dorsal tail vein. Mice were euthanized when they became ill or at 78 days post-transplantation. BM was removed from the two femurs by flushing with RPMI1640 medium, spleen cells were abstained by mincing and filtering through a cell strainer and peripheral blood was collected from the heart. […] The percentage of human CD45+ cells was calculated as follows: % human CD45+ cells=No. human CD45+ cells/(No. human CD45+ cells+No. mouse CD45+ cells)×100. […]
SALL4 is critical for leukemic cell survival in the AML cell line NB4 (Yang, et al., Blood, 112:805-813 (2008)). […] 48 hours after transduction, the viability of cells was determined by flow cytometry after staining with Annexin V and propidium iodide (PI). […]

CTATTTAGCCAAAGGCAAA (short hairpin RNA, chemistry and delivery not given here, further chemistry not given here) [E5 shRNA]
cell viability (MTS) [1]: decrease of cell viability
caspase 3/7 activity (apoptosis) (SNU-398 cells): increase in apoptosis activity

GATGCCTTGAAACAAGCCAAGCTACCTCA (chemistry not given here) [compound 7412, SALL4 shRNA used in primary AML cells]
recipient mice without leukemia / still healthy (primary human AML cells; four months after transplantation): four out of six
recipient mice that developed fatal AML / leukemia (primary human AML cells; mouse, in vivo): 2 out of 6
human CD45 positive cells in non-leukemic recipients (primary human AML cells; peripheral blood, bone marrow or spleen): less than 0.5%
median survival of recipient mice (primary human AML cells; transduced primary human AML cells, tail vein): 109 days
